Measurements published in patent US7316990B2, “High-strength, low viscosity herbicidal formulations of glyphosate” (Dow AgroSciences LLC, priority 2003, dated 2008).

Tested on: Five broadleaf species (IPOHE, CHEAL, EPHHL, ABUTH and CASOB)
Assay: Greenhouse study of glyphosate salt solutions in mixture with a second herbicide (Colby's equation)
Format: in vivo
Conditions: for % Actual Control: 420 gae/ha glyphosate and/or 140 gae/ha second herbicide, 3 days after application, averaged over the 5 species; for Herbicide interaction with 2,4-D DMA and triclopyr TEA (actual versus expected control): Colby's equation
Experimental: In a further greenhouse study, the efficacy of a glyphosate DMA salt solution in mixture with DMA 4 (456 g/l 2,4-D acid equivalent in the form of the DMA salt) and Garlon 3A (360 g/l triclopyr acid equivalent in the form of the triethylamine [TEA] salt) respectively was compared with the efficacy of a glyphosate K salt solution in the same mixtures. The glyphosate salt solutions were prepared by diluting the glyphosate DMA salt concentrate and glyphosate K salt concentrate with the required amount of water to prepare solutions containing 480 g/l glyphosate acid equivalent each. Five broadleaf species (IPOHE, CHEAL, EPHHL, ABUTH and CASOB) were sprayed with the individual formulations as well as the mixtures listed in Table 6. The herbicide interactions were analyzed using Colby's equation. This equation for the expected mixture response is: Y1+2=Y1+Y2−(Y1Y2)100 where Y1+2 is the expected mixture response and y1 and y2 are the percent control values of the individual herbicides.

| Compound | % Actual Control | Herbicide interaction with 2,4-D DMA and triclopyr TEA (actual versus expected control) |
| --- | --- | --- |
| CNC.O=C(O)COc1ccc(Cl)cc1Cl [2,4-D DMA salt] | 47.0% |  |
| CNC.O=C(O)CNCP(=O)(O)O [glyphosate DMA salt] | 35.7% | no antagonism |
| O=C(O)CNCP(=O)([O-])O.[K+] [glyphosate K salt] | 35.7% | antagonistic |
| CCN(CC)CC.O=C(O)COc1nc(Cl)c(Cl)cc1Cl [triclopyr TEA salt] | 55.0% |  |
